Reference: patent US20060073995A1, “Animal shampoo” (priority 2004, published 2006)

Assay: Stability study of the shampoo solution at room temperature (active ingredient remaining)
Format: physicochemical
Method: Solution was stirred and stability studies were performed at room temperature

With “N-chloro-4-carboxybenzenesulfonamide disodium salt” the “N-chloro-4-carboxybenzenesulfonamide disodium salt active ingredient remained” value (in Example 1 shampoo (1% active, pH just below 9), after 49 days) was 84.8%, the “N-chloro-4-carboxybenzenesulfonamide disodium salt active ingredient remained” value (in Example 2 shampoo (1% active, pH 9), after 62 days) was 100% and the “N-chloro-4-carboxybenzenesulfonamide disodium salt active ingredient remained” value (in Example 3 shampoo (1% active, pH 9), after 62 days) was 88.1%.
